From patent publication US20080260896A1 (priority 2007, published 2008)
Read-outs that look alike come from different tables or passages of the source. Marks after values point to notes of the source that are not given here.

Columns and labels:
[1] = Crude glycerin in finishing cattle diets: animal performance (weight, ADG, DMI, gain/feed); format: in vivo, Angus-cross steers; details: for Gain/Feed, ×100 / Weight / Average Daily Gain / Dry Matter Intake: 10% DM glycerin
Procedure: All cattle were adapted on a common 4-step transition prior to initiation of the evaluation. Cattle were blocked by weight (4 blocks) with four pens per treatment (9-10 head/pen). […] Individual weights were collected at 28-day intervals throughout with steers terminated on three harvest dates (days on feed 116 to 153 days) based on weight and condition. Six monthly periods and cumulative (d 1-116 and 1-153) periods were analyzed.

[2] = lambs
From the text: Lambs received a common receiving ration for one week prior to allotment. Lambs were blocked by weight (4 blocks) and fed in individual crates for […]. […] Initial and final weights were collected on consecutive days and an interim weight was taken on day 14. Periods were: 1) days 1 to 14, 2) days 15 to 29, and 3) cumulative (days 1 to 29).

[3] = Day 85-116, DDGS:Soy Hulls 10:0 diet (Treatment 2)
[4] = Day 85-116, DDGS:Soy Hulls 30:15 diet (Treatment 4)
[5] = Day 85-116, main effect over both diets
[6] = Day 117-132, DDGS:Soy Hulls 10:0 diet (Treatment 2)
[7] = Day 117-132, DDGS:Soy Hulls 30:15 diet (Treatment 4)
[8] = Day 117-132, main effect over both diets
[9] = Day 133-153, DDGS:Soy Hulls 10:0 diet (Treatment 2)
[10] = Day 133-153, DDGS:Soy Hulls 30:15 diet (Treatment 4)
[11] = Day 133-153, main effect over both diets
[12] = high co-product diets with glycerin

OCC(O)CO [crude glycerin, glycerin]
Gain/Feed, ×100 ([1]; Day 57-84, main effect over both diets): 14.00 | Weight ([1]; Day 84, DDGS:Soy Hulls 10:0 diet (Treatment 2)): 507.3 kg | Weight ([1]; Day 84, DDGS:Soy Hulls 30:15 diet (Treatment 4)): 505.4 kg | Weight ([1]; Day 84, main effect over both diets): 506.4 kg | Average Daily Gain [1, 3]: 0.97 kg/hd/d | Dry Matter Intake [1, 3]: 7.74^c kg/hd/d | Gain/Feed, ×100 [1, 3]: 12.47 | Average Daily Gain [1, 4]: 0.93 kg/hd/d | Dry Matter Intake [1, 4]: 8.25^bc kg/hd/d | Gain/Feed, ×100 [1, 4]: 11.22 | Average Daily Gain [1, 5]: 0.95 kg/hd/d | Dry Matter Intake [1, 5]: 8.00 kg/hd/d | Gain/Feed, ×100 [1, 5]: 11.84 | Weight ([1]; Day 116, DDGS:Soy Hulls 10:0 diet (Treatment 2)): 538.3 kg | Weight ([1]; Day 116, DDGS:Soy Hulls 30:15 diet (Treatment 4)): 535.1 kg | Weight ([1]; Day 116, main effect over both diets): 536.7 kg | Average Daily Gain [1, 6]: 1.46 kg/hd/d | Dry Matter Intake [1, 6]: 8.67^ab kg/hd/d | Gain/Feed, ×100 [1, 6]: 17.25 | Average Daily Gain [1, 7]: 1.26 kg/hd/d | Dry Matter Intake [1, 7]: 9.54^ab kg/hd/d | Gain/Feed, ×100 [1, 7]: 12.86 | Average Daily Gain [1, 8]: 1.36 kg/hd/d | Dry Matter Intake [1, 8]: 9.11 kg/hd/d | Gain/Feed, ×100 [1, 8]: 15.06 | Weight ([1]; Day 132, DDGS:Soy Hulls 10:0 diet (Treatment 2)): 552.8 kg | Weight ([1]; Day 132, DDGS:Soy Hulls 30:15 diet (Treatment 4)): 548.8 kg | Weight ([1]; Day 132, main effect over both diets): 550.8 kg | Average Daily Gain [1, 9]: 1.39^a kg/hd/d | Dry Matter Intake [1, 9]: 8.48 kg/hd/d | Gain/Feed, ×100 [1, 9]: 16.48^a | Average Daily Gain [1, 10]: 0.90^b kg/hd/d | Dry Matter Intake [1, 10]: 9.42 kg/hd/d | Gain/Feed, ×100 [1, 10]: 9.35^b | Average Daily Gain [1, 11]: 1.15 kg/hd/d | Dry Matter Intake [1, 11]: 8.95 kg/hd/d | Gain/Feed, ×100 [1, 11]: 12.92 | Weight ([1]; Day 153, DDGS:Soy Hulls 10:0 diet (Treatment 2)): 570.5 kg | Weight ([1]; Day 153, DDGS:Soy Hulls 30:15 diet (Treatment 4)): 548.0 kg | Weight ([1]; Day 153, main effect over both diets): 559.3 kg | Cumulative ADG better [1, 12]: 2.5% | cumulative DMI lower [1, 12]: 11.8% | cumulative gain: feed better [1, 12]: 16.4% | Cumulative ADG greater ([1]; high-grain diets with glycerin): 11.4% | cumulative DMI lesser ([1]; high-grain diets with glycerin): 8.1% | cumulative gain: feed greater ([1]; high-grain diets with glycerin): 21.9% | Cumulative ADG ([1]; steers fed diets containing 10% crude glycerin (main effect)): 1.24 kg/day | dry matter intake (DMI) ([1]; steers fed diets with added glycerin (main effect), cumulative): 8.68 kg/day | Final weight ([2]; 0 to 20% crude glycerin): not significantly different | morbidity and mortality, treatment effects ([2]; 0 to 20% crude glycerin): treatment effects were not different | cumulative DMI ([2]; 5% crude glycerin): 1.26 kg/day | cumulative DMI ([2]; 10% crude glycerin): 1.21 kg/day | cumulative DMI ([2]; 15% crude glycerin): 1.27 kg/day | cumulative DMI ([2]; 20% crude glycerin): 1.20 kg/day | Cumulative ADG ([2]; days 1 to 29, 5% crude glycerin): 0.40 kg/day | Cumulative ADG ([2]; days 1 to 29, 10% crude glycerin): 0.36 kg/day | Cumulative ADG ([2]; days 1 to 29, 15% crude glycerin): 0.39 kg/day | Cumulative ADG ([2]; days 1 to 29, 20% crude glycerin): 0.36 kg/day | palatability ([2]; levels of up to 20% dry matter (DM) inclusion): not a concern
